Laboratory results reported in patent publication US9745307B2, “Compounds that are ERK inhibitors” (Merck Sharp & Dohme Corp., priority 2013, dated 2017).

Target: phosphorylated active hERK2 enzyme (Homo sapiens (Human), UniProt P28482)
Assay: Active Human ERK2 (hERK2) Activity Assay (IMAP-FP)
Assay type: biochemical
Details: 0.5 nM hERK2, 30 μM ATP, 60 minutes reaction; read-out: ERK 2 Human average IC50
Description: Active Human ERK2 (hERK2) Activity Assay:
Activated ERK2 activity was determined in an IMAP-FP assay (Molecular Devices).

phosphorylated active hERK2 enzyme, sequence (P28482 whole entry): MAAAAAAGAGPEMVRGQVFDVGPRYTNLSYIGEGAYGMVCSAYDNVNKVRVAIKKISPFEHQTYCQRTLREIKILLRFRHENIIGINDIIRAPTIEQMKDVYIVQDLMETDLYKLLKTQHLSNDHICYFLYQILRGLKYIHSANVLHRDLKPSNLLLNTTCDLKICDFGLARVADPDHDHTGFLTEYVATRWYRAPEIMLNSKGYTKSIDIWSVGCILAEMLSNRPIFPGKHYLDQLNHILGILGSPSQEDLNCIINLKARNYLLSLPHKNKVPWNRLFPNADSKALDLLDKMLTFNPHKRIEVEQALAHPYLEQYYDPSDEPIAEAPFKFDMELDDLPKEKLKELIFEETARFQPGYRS

IC50 [nM] | SMILES
25 | C[C@H](c1ccccc1)N1Cc2cc3c(N[C@@H](C)C(F)(F)F)n[nH]c3cc2NC1=O [Example 30, 6-((R)-1-phenylethyl)-3-(((S)-1,1,1-trifluoropropan-2-yl)amino)-5,6-dihydro-1H-pyrazolo[4,3-g]quinazolin-7(8H)-one]
21 | C[C@H](c1ccccc1)N1Cc2cc3c(N)n[nH]c3cc2NC1=O [Example 32, (R)-3-amino-6-(1-phenylethyl)-5,6-dihydro-1H-pyrazolo[4,3-g]quinazolin-7(8H)-one]
5.2 | COC(=O)Nc1n[nH]c2cc3c(cc12)CN([C@H](C)c1ccccc1)C(=O)N3 [Example 33, (R)-methyl(7-oxo-6-(1-phenylethyl)-5,6,7,8-tetrahydro-1H-pyrazolo[4,3-g]quinazolin-3-yl)carbamate]
45 | C[C@H](c1ccccc1)n1c(=O)[nH]c2cc3[nH]nc(N)c3cc2c1=O [Example 44, (R)-3-amino-6-(1-phenylethyl)-1H-pyrazolo[4,3-g]quinazoline-5,7(6H,8H)-dione]

The next lines start with the compound.

SMILES | IC50 [nM]
Cc1cc(-c2n[nH]c3cc4c(cc23)CCC(=O)N4O)ccn1 [Example 8, 8-hydroxy-3-(2-methylpyridin-4-yl)-5,6-dihydro-1H-pyrazolo[4,3-g]quinolin-7(8H)-one] | 3.6
C[C@H](c1ccccc1)N1Cc2cc3c(-c4ccc5nnn(C)c5c4)n[nH]c3cc2NC1=O [Example 26, (R)-3-(1-methyl-1H-benzo[d][1,2,3]triazol-6-yl)-6-(1-phenylethyl)-5,6-dihydro-1H-pyrazolo[4,3-g]quinazolin-7(8H)-one] | 0.3
CCNc1n[nH]c2cc3c(cc12)CN([C@H](C)c1ccccc1)C(=O)N3 [Example 29, (R)-3-(ethylamino)-6-(1-phenylethyl)-5,6-dihydro-1H-pyrazolo[4,3-g]quinazolin-7(8H)-one] | 22
C[C@H](c1ccccc1)N1Cc2cc3cn[nH]c3cc2NC1=O [Example 31, (R)-6-(1-phenylethyl)-5,6-dihydro-1H-pyrazolo[4,3-g]quinazolin-7(8H)-one] | 55
